pEC50: −log10 of the molar value. Starred links: 1 amine or outer side, 2 acyl side, 3 side chain; linkers in the order of their positions; H or OH if unused. Non-standard residues stand in square brackets, D forms with d. Residues, ends and D or L forms follow the SMILES beside them. Groups on a side chain read outwards from the residue. *: point of attachment. C18 diacid = O=C(O)CCCCCCCCCCCCCCCCC(=O)*; γGlu = O=C(O)[C@H](CCC(=O)[*:2])N[*:1]; αMeF = C[C@](N)(Cc1ccccc1)C(=O)O; AEEA = NCCOCCOCC(=O)O; Aib = CC(C)(N)C(=O)O
Key:
[1] = molecular target: human GLP-1 receptor (hGLP-1R) (Homo sapiens, UniProt P43220); assay: cAMP production (HTRF) in CHO cells expressing hGLP-1R; type: cell-based; design: expressed in transfected cells; settings: for pEC50: Table 6, peptides modified at position 17, cAMP in CHO hGLP-1R cells, geometric mean, read-out: hGLP-1R EC50; for % Relative Potency Ratio: Table 6, % GLP-1R activity relative to GLP-1 / % GlucR activity relative to glucagon
Outline: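 Read-out: HTRF cAMP (anti-cAMP cryptate donor, cAMP-d2 acceptor in conjugate/lysis buffer), converted to % Delta F and fitted by 4-parameter logistic for EC50. Cell densities were 1×10^5 cells/mL (hGLP-1R) or 2×10^5 cells/mL (hGCGR). Stimulation lasted 30 min at room temperature.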

[2] = molecular target: human glucagon receptor (hGCGR) (Homo sapiens, UniProt P47871); assay: cAMP production (HTRF) in CHO cells expressing hGCGR; type: cell-based; design: expressed in transfected cells; settings: Table 6, peptides modified at position 17; cAMP in CHO hGCGR cells; geometric mean; read-out: hGluc-R EC50
Protocol: Cells were re-suspended in assay buffer at a batch-dependent optimized concentration (typically hGLP-1R cells at 1×10^5 cells/mL, hGCGR cells at 2×10^5 cells/mL).
Cells were added to the assay plate using a multidrop dispenser and incubated at room temperature for 30 minutes before measuring the cAMP level using a cAMP dynamic 2 homogeneous time resolved Fluorescence (HTRF) kit (Cisbio Bioassays #62AM4PEJ) following the two-step protocol as per manufacturer's recommendations. In brief, anti-cAMP cryptate (donor fluorophore) and cAMP-d2 (acceptor fluorophore) were made up separately by diluting each 1 in 20 in conjugate and lysis buffer provided in the kit. Anti-CAMP cryptate was added to all wells of the assay plate, followed by cAMP-d2 added to all wells except non-specific binding (NSB) wells (to which conjugate and lysis buffer was added).
Data was transformed to % Delta F as described in the manufacturer's guidelines and analyzed by 4-parameter logistic fit to determine EC50 values.

Chain of human GLP-1 receptor (hGLP-1R) (P43220 24-463): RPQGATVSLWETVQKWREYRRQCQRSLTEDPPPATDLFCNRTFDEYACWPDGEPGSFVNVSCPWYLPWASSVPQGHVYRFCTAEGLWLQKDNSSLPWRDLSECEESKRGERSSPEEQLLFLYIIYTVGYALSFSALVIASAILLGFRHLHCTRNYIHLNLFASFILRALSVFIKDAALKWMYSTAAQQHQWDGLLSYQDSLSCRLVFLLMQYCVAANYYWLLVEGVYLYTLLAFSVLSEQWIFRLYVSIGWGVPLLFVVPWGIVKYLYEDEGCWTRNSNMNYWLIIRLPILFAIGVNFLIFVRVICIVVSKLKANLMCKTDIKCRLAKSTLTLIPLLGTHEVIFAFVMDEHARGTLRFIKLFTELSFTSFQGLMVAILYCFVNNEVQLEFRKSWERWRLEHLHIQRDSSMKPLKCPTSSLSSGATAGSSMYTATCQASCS
Chain of human glucagon receptor (hGCGR) (P47871 26-477): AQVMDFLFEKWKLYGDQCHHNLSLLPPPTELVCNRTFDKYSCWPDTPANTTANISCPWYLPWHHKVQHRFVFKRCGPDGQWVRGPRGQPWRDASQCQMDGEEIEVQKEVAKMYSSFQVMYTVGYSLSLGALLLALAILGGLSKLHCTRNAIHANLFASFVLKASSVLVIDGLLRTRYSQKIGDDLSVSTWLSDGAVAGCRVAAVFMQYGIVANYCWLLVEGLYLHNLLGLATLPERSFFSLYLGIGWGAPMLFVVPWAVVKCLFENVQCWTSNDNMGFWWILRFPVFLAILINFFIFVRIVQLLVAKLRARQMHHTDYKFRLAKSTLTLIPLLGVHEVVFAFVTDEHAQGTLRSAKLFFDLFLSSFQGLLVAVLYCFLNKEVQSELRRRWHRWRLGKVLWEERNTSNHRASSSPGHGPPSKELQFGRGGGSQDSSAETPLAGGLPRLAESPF

Compound	pEC50 [1]	% Relative Potency Ratio [1]	pEC50 [2]
CC[C@H](C)[C@H](NC(=O)[C@H](Cc1c[nH]c2ccccc12)NC(=O)[C@H](CCC(=O)O)NC(=O)[C@@H](NC(=O)[C@](C)(Cc1ccccc1)NC(=O)[C@H](CC(=O)O)NC(=O)[C@H](CCC(N)=O)NC(=O)[C@H](C)NC(=O)[C@H](C)NC(=O)[C@H](CCCCNC(=O)COCCOCCNC(=O)COCCOCCNC(=O)CC[C@H](NC(=O)CCCCCCCCCCCCCCCCC(=O)O)C(=O)O)NC(=O)[C@H](CO)NC(=O)[C@H](CC(=O)O)NC(=O)[C@H](CC(C)C)NC(=O)[C@](C)(Cc1ccccc1)NC(=O)[C@H](CCCCN)NC(=O)[C@H](CO)NC(=O)[C@@H](NC(=O)[C@H](CC(=O)O)NC(=O)[C@H](CO)NC(=O)[C@@H](NC(=O)[C@](C)(Cc1ccccc1)NC(=O)[C@H](CO)NC(=O)CNC(=O)[C@H](Cc1c[nH]cn1)NC(=O)C(C)(C)NC(=O)[C@@H](N)Cc1c[nH]cn1)[C@@H](C)O)C(C)C)C(C)C)C(=O)N[C@@H](C)C(=O)N[C@@H](CC(N)=O)C(N)=O [Peptide 6] (H-H[Aib]HGS[αMeF]TSDVSK[αMeF]LDSK([AEEA-AEEA-γGlu-C18 diacid])AAQD[αMeF]VEWIAN-NH2; N-terminus assumed)	9.25	1.8	9.29
CC[C@H](C)[C@H](NC(=O)[C@H](Cc1c[nH]c2ccccc12)NC(=O)[C@H](CCC(N)=O)NC(=O)[C@@H](NC(=O)[C@H](Cc1ccccc1)NC(=O)[C@H](CC(=O)O)NC(=O)[C@H](CCC(N)=O)NC(=O)[C@H](C)NC(=O)[C@H](C)NC(=O)[C@H](CCCCNC(=O)COCCOCCNC(=O)COCCOCCNC(=O)CC[C@H](NC(=O)CCCCCCCCCCCCCCCCC(=O)O)C(=O)O)NC(=O)[C@H](CO)NC(=O)[C@H](CC(=O)O)NC(=O)[C@H](CC(C)C)NC(=O)[C@](C)(Cc1ccccc1)NC(=O)[C@H](CCCCN)NC(=O)[C@H](CO)NC(=O)[C@@H](NC(=O)[C@H](CC(=O)O)NC(=O)[C@H](CO)NC(=O)[C@@H](NC(=O)[C@](C)(Cc1ccccc1)NC(=O)[C@H](CO)NC(=O)CNC(=O)[C@H](Cc1c[nH]cn1)NC(=O)C(C)(C)NC(=O)[C@@H](N)Cc1c[nH]cn1)[C@@H](C)O)C(C)C)C(C)C)C(=O)N[C@@H](C)C(=O)N[C@@H](CC(N)=O)C(=O)N[C@H](C(N)=O)[C@@H](C)O [Peptide 8] (H-H[Aib]HGS[αMeF]TSDVSK[αMeF]LDSK([AEEA-AEEA-γGlu-C18 diacid])AAQDFVQWIANT-NH2; N-terminus assumed)	10.06	1.2	10.27
CC[C@H](C)[C@H](NC(=O)[C@H](Cc1c[nH]c2ccccc12)NC(=O)[C@H](CCC(N)=O)NC(=O)[C@@H](NC(=O)[C@H](Cc1ccccc1)NC(=O)[C@H](CC(=O)O)NC(=O)[C@H](CCCNC(=N)N)NC(=O)[C@H](C)NC(=O)[C@H](C)NC(=O)[C@H](CCCCNC(=O)COCCOCCNC(=O)COCCOCCNC(=O)CC[C@H](NC(=O)CCCCCCCCCCCCCCCCC(=O)O)C(=O)O)NC(=O)[C@H](CO)NC(=O)[C@H](CC(=O)O)NC(=O)[C@H](CC(C)C)NC(=O)[C@](C)(Cc1ccccc1)NC(=O)[C@H](CCCCN)NC(=O)[C@H](CO)NC(=O)[C@@H](NC(=O)[C@H](CC(=O)O)NC(=O)[C@H](CO)NC(=O)[C@@H](NC(=O)[C@](C)(Cc1ccccc1)NC(=O)[C@H](CO)NC(=O)CNC(=O)[C@H](Cc1c[nH]cn1)NC(=O)C(C)(C)NC(=O)[C@@H](N)Cc1c[nH]cn1)[C@@H](C)O)C(C)C)C(C)C)C(=O)N[C@@H](C)C(=O)N[C@@H](CC(N)=O)C(=O)N[C@H](C(N)=O)[C@@H](C)O [Peptide 9] (H-H[Aib]HGS[αMeF]TSDVSK[αMeF]LDSK([AEEA-AEEA-γGlu-C18 diacid])AARDFVQWIANT-NH2; N-terminus assumed)	9.62	2.3	9.55
CC[C@H](C)[C@H](NC(=O)[C@H](Cc1c[nH]c2ccccc12)NC(=O)[C@H](CCC(=O)O)NC(=O)[C@@H](NC(=O)[C@H](Cc1ccccc1)NC(=O)[C@H](CC(=O)O)NC(=O)[C@H](CCCNC(=N)N)NC(=O)[C@H](C)NC(=O)[C@H](C)NC(=O)[C@H](CCCCNC(=O)COCCOCCNC(=O)COCCOCCNC(=O)CC[C@H](NC(=O)CCCCCCCCCCCCCCCCC(=O)O)C(=O)O)NC(=O)[C@H](CO)NC(=O)[C@H](CC(=O)O)NC(=O)[C@H](CC(C)C)NC(=O)[C@](C)(Cc1ccccc1)NC(=O)[C@H](CCCCN)NC(=O)[C@H](CO)NC(=O)[C@@H](NC(=O)[C@H](CC(=O)O)NC(=O)[C@H](CO)NC(=O)[C@@H](NC(=O)[C@](C)(Cc1ccccc1)NC(=O)[C@H](CO)NC(=O)CNC(=O)[C@H](Cc1c[nH]cn1)NC(=O)C(C)(C)NC(=O)[C@@H](N)Cc1c[nH]cn1)[C@@H](C)O)C(C)C)C(C)C)C(=O)N[C@@H](C)C(=O)N[C@@H](CC(N)=O)C(=O)N[C@H](C(N)=O)[C@@H](C)O [Peptide 10] (H-H[Aib]HGS[αMeF]TSDVSK[αMeF]LDSK([AEEA-AEEA-γGlu-C18 diacid])AARDFVEWIANT-NH2; N-terminus assumed)	9.18	1.1	9.42

The next lines start with the values.

pEC50 [1]	% Relative Potency Ratio [1]	pEC50 [2]	Compound
9.81	1.5	9.93	CC[C@H](C)[C@H](NC(=O)C(C)(C)NC(=O)[C@H](CCC(N)=O)NC(=O)[C@@H](NC(=O)[C@H](Cc1ccccc1)NC(=O)[C@H](CC(=O)O)NC(=O)[C@H](CCC(N)=O)NC(=O)[C@H](C)NC(=O)[C@H](C)NC(=O)[C@H](CCCCNC(=O)COCCOCCNC(=O)COCCOCCNC(=O)CC[C@H](NC(=O)CCCCCCCCCCCCCCCCC(=O)O)C(=O)O)NC(=O)[C@H](CO)NC(=O)[C@H](CC(=O)O)NC(=O)[C@H](CC(C)C)NC(=O)[C@](C)(Cc1ccccc1)NC(=O)[C@H](CCCCN)NC(=O)[C@H](CO)NC(=O)[C@@H](NC(=O)[C@H](CC(=O)O)NC(=O)[C@H](CO)NC(=O)[C@@H](NC(=O)[C@](C)(Cc1ccccc1)NC(=O)[C@H](CO)NC(=O)CNC(=O)[C@H](Cc1c[nH]cn1)NC(=O)C(C)(C)NC(=O)[C@@H](N)Cc1c[nH]cn1)[C@@H](C)O)C(C)C)C(C)C)C(=O)N[C@@H](C)C(=O)N[C@@H](CC(N)=O)C(=O)N[C@H](C(N)=O)[C@@H](C)O [Peptide 11] (H-H[Aib]HGS[αMeF]TSDVSK[αMeF]LDSK([AEEA-AEEA-γGlu-C18 diacid])AAQDFVQ[Aib]IANT-NH2)
10.84	6.5	10.32	CC[C@H](C)[C@H](NC(=O)C(C)(C)NC(=O)[C@H](CCC(N)=O)NC(=O)[C@@H](NC(=O)[C@H](Cc1ccccc1)NC(=O)[C@H](CC(=O)O)NC(=O)[C@H](CCCNC(=N)N)NC(=O)[C@H](C)NC(=O)[C@H](C)NC(=O)[C@H](CCCCNC(=O)COCCOCCNC(=O)COCCOCCNC(=O)CC[C@H](NC(=O)CCCCCCCCCCCCCCCCC(=O)O)C(=O)O)NC(=O)[C@H](CO)NC(=O)[C@H](CC(=O)O)NC(=O)[C@H](CC(C)C)NC(=O)[C@](C)(Cc1ccccc1)NC(=O)[C@H](CCCCN)NC(=O)[C@H](CO)NC(=O)[C@@H](NC(=O)[C@H](CC(=O)O)NC(=O)[C@H](CO)NC(=O)[C@@H](NC(=O)[C@](C)(Cc1ccccc1)NC(=O)[C@H](CO)NC(=O)CNC(=O)[C@H](Cc1c[nH]cn1)NC(=O)C(C)(C)NC(=O)[C@@H](N)Cc1c[nH]cn1)[C@@H](C)O)C(C)C)C(C)C)C(=O)N[C@@H](C)C(=O)N[C@@H](CC(N)=O)C(=O)N[C@H](C(N)=O)[C@@H](C)O [Peptide 12] (H-H[Aib]HGS[αMeF]TSDVSK[αMeF]LDSK([AEEA-AEEA-γGlu-C18 diacid])AARDFVQ[Aib]IANT-NH2; N-terminus assumed)
10.80	5.5	10.36	CC[C@H](C)[C@H](NC(=O)C(C)(C)NC(=O)[C@H](CCC(N)=O)NC(=O)[C@@H](NC(=O)[C@](C)(Cc1ccccc1)NC(=O)[C@H](CC(=O)O)NC(=O)[C@H](CCCNC(=N)N)NC(=O)[C@H](C)NC(=O)[C@H](C)NC(=O)[C@H](CCCCNC(=O)COCCOCCNC(=O)COCCOCCNC(=O)CC[C@H](NC(=O)CCCCCCCCCCCCCCCCC(=O)O)C(=O)O)NC(=O)[C@H](CO)NC(=O)[C@H](CC(=O)O)NC(=O)[C@H](CC(C)C)NC(=O)[C@](C)(Cc1ccccc1)NC(=O)[C@H](CCCCN)NC(=O)[C@H](CO)NC(=O)[C@@H](NC(=O)[C@H](CC(=O)O)NC(=O)[C@H](CO)NC(=O)[C@@H](NC(=O)[C@](C)(Cc1ccccc1)NC(=O)[C@H](CO)NC(=O)CNC(=O)[C@H](Cc1c[nH]cn1)NC(=O)C(C)(C)NC(=O)[C@@H](N)Cc1c[nH]cn1)[C@@H](C)O)C(C)C)C(C)C)C(=O)N[C@@H](C)C(=O)N[C@@H](CC(N)=O)C(=O)N[C@H](C(N)=O)[C@@H](C)O [Peptide 13] (H-H[Aib]HGS[αMeF]TSDVSK[αMeF]LDSK([AEEA-AEEA-γGlu-C18 diacid])AARD[αMeF]VQ[Aib]IANT-NH2; N-terminus assumed)
